Active and inactive are the calls of the source. No cut-off for these calls is given here.
Assays:
K562R [1] = settings: Homo sapiens
Description: Inhibition of P-gp in doxorubicin-resistant human K562R cells assessed as rhodamine efflux by measuring mean fluorescence intensity at 10 uM incubated for 1 hr by flow cytometry (Rvb = 0.47 No_unit)

[2] = Cytotoxicity against human K562 cells incubated for 72 hrs by CellTiter 96 aqueous one solution reagent based assay; assay type: functional, cell-based
[3] = Resistance index, ratio of IC50 for cytotoxicity against doxorubicin-resistant human K562R cells to IC50 for cytotoxicity against human K562 cells; assay type: functional
K562R [4] = experiment: Inhibition of P-gp in doxorubicin-resistant human K562R cells assessed as rhodamine influx by measuring ratio of rhodamine mean fluorescence intensity in presence and absence of compound at 10 uM incubated for 20 mins by flow cytometry; assay type: cell-based
K562R [5] = experiment: Inhibition of P-gp in doxorubicin-resistant human K562R cells assessed as rhodamine influx by measuring mean fluorescence intensity at 10 uM incubated for 20 mins by flow cytometry; assay type: cell-based
[6] = Cytotoxicity against doxorubicin-resistant human K562R cells incubated for 72 hrs by CellTiter 96 aqueous one solution reagent based assay; assay type: functional, cell-based; settings: k-562r
[7] = Cytotoxicity against human MRC5 cells incubated for 72 hrs by CellTiter 96 aqueous one solution reagent based assay; assay type: toxicity, cell-based; settings: mrc5, 72 h
K562R [8] = experiment: Inhibition of P-gp in doxorubicin-resistant human K562R cells assessed as rhodamine influx by measuring ratio of rhodamine mean fluorescence intensity in presence and absence of compound at 5 uM incubated for 20 mins by flow cytometry; assay type: cell-based
K562R [9] = experiment: Inhibition of P-gp-mediated multidrug resistance in doxorubicin-resistant human K562R cells assessed as potentiation of 50 nM vinorelbine-induced cytotoxicity at 2 uM incubated for 72 hrs by CellTiter 96 aqueous one solution reagent based assay; assay type: cell-based
[10] = Cytotoxicity against doxorubicin-resistant human K562R cells assessed as reduction in cell viability at 1 uM incubated for 72 hrs by CellTiter 96 aqueous one solution reagent based assay; assay type: functional, K562
K562 = experiment: Potentiation of 0.1 to 1 nM vinorelbine-induced cytotoxicity by measuring reduction in cell viability against human K562 cells at 2 uM incubated for 72 hrs by CellTiter 96 aqueous one solution reagent based assay; assay type: functional
Homo sapiens [11] = species: Homo sapiens; experiment: Inhibition of recombinant human P-gp ATPase activity at 40 uM by Pgp-Glo assay
K562R [12] = experiment: Inhibition of P-gp-mediated multidrug resistance in doxorubicin-resistant human K562R cells assessed as potentiation of 1 uM doxorubicin-induced cytotoxicity by measuring cell death level at 2 uM incubated for 72 hrs by CellTiter 96 aqueous one solution reagent based assay; parameters: scale not given: the % may be the effect or the level left
Homo sapiens [13] = species: Homo sapiens; experiment: Stimulation of recombinant human P-gp ATPase activity at 10 uM by Pgp-Glo assay
[14] = Cytotoxicity against doxorubicin-resistant human K562R cells assessed as reduction in cell viability at 2 uM incubated for 72 hrs by CellTiter 96 aqueous one solution reagent based assay; assay type: functional, K562
K562R [15] = experiment: Inhibition of P-gp-mediated multidrug resistance in doxorubicin-resistant human K562R cells assessed as potentiation of 5 nM vinorelbine-induced cytotoxicity by measuring cell viability at 1 uM incubated for 72 hrs by CellTiter 96 aqueous one solution reagent based assay

Compound | Flu intensity (K562R [1]) | IC50 [2] [µmol] | Ratio IC50 [3] | Ratio (K562R [4]) | Flu intensity (K562R [5]) | IC50 [6] [µmol] | Activity [7] | inhibition (K562R [8]) | inhibition (K562R [9]) | Activity [10] [%] | Activity (K562) [%] | inhibition (Homo sapiens [11]) | Activity (K562R [12]) [%] | Activity (Homo sapiens [13]) | Activity [14] [%] | Activity (K562R [15]) [%]
CCC1=C[C@H]2CN(C1)/C(C(=O)NC(C)C)=C(/C(=O)OC)Cc1c([nH]c3ccccc13)[C@@](C(=O)OC)(c1cc3c(cc1OC)N(C)[C@H]1[C@@](O)(C(=O)OC)[C@H](OC(C)=O)[C@]4(CC)C=CCN5CC[C@]31[C@@H]54)C2 | 1.39 | 0.04 | 50 | 1.6 | 2.9 | 2 |  |  |  |  |  |  |  |  |  | 
CCC1=C[C@H]2CN(C1)C[C@H](C(=O)OCc1ccccc1)Cc1c([nH]c3ccccc13)[C@@](C(=O)OC)(c1cc3c(cc1OC)N(C)[C@H]1[C@@](O)(C(=O)OC)[C@H](OC(C)=O)[C@]4(CC)C=CCN5CC[C@]31[C@@H]54)C2 | 0.48 | 0.4 | >25 | 1.2 | 2.2 | > 10 |  |  |  |  |  |  |  |  |  | 
CCC1=C[C@@H]2CN(C1)Cc1c([nH]c3ccccc13)[C@@](C(=O)OC)(c1cc3c(cc1OC)N(C)[C@H]1[C@@](O)(C(=O)OC)[C@H](OC(C)=O)[C@]4(CC)C=CCN5CC[C@]31[C@@H]54)C2 [VINORELBINE] | 0.42 | 0.003 | 137 | 0.9 | 1.6 | 0.41 | Toxic |  |  |  |  |  |  |  |  | 
COc1cccc2c1C(=O)c1c(O)c3c(c(O)c1C2=O)C[C@@](O)(C(=O)CO)C[C@@H]3O[C@H]1C[C@H](N)[C@H](O)[C@H](C)O1 [DOXORUBICIN] |  | 0.047 | 745 |  |  | 35 |  |  |  |  |  |  |  |  |  | 
CC[C@]1(O)C[C@@H]2CN(CCc3c([nH]c4ccccc34)[C@@](C(=O)OC)(c3cc4c(cc3OC)N(C)[C@H]3[C@@](O)(C(=O)OC)[C@H](OC(C)=O)[C@]5(CC)C=CCN6CC[C@]43[C@@H]65)C2)C1 [VINBLASTINE] | 0.42 | 0.004 | 120 | 0.7 | 1.2 | 0.48 | Toxic |  |  |  |  |  |  |  |  | 
CCC1=C[C@H]2CN(C1)C1=C(Cc3c([nH]c4ccccc34)[C@@](C(=O)OC)(c3cc4c(cc3OC)N(C)[C@H]3[C@@](O)(C(=O)OC)[C@H](OC(C)=O)[C@]5(CC)C=CCN6CC[C@]43[C@@H]65)C2)C(=O)N(C(C)C)C1=O | 2.9 | 2.6 | 2.3 | 4.2 | 7.6 | 6 | Toxic | Active |  |  |  |  |  |  |  | 
C#Cc1ccc2[nH]c3c(c2c1)C/C(C(=O)OC)=C(/C(=O)NC(C)C)N1CC(CC)=C[C@@H](C1)C[C@]3(C(=O)OC)c1cc2c(cc1OC)N(C)[C@H]1[C@@](O)(C(=O)OC)[C@H](OC(C)=O)[C@]3(CC)C=CCN4CC[C@]21[C@@H]43 | 0.51 | 0.6 | 4 | 1 | 1.8 | 2.5 |  |  |  |  |  |  |  |  |  | 
C#Cc1ccc2[nH]c3c(c2c1)C/C(C(=O)OC)=C\N1CC(CC)=C[C@@H](C1)C[C@]3(C(=O)OC)c1cc2c(cc1OC)N(C)[C@H]1[C@@](O)(C(=O)OC)[C@H](OC(C)=O)[C@]3(CC)C=CCN4CC[C@]21[C@@H]43 | 0.45 | 0.6 | 5 | 0.9 | 1.6 | 3 |  |  |  |  |  |  |  |  |  | 
CCC1=C[C@H]2CN(C1)C1=C(Cc3c([nH]c4ccccc34)[C@@](C(=O)OC)(c3cc4c(cc3OC)N(C)[C@H]3[C@@](O)(C(=O)OC)[C@H](OC(C)=O)[C@]5(CC)C=CCN6CC[C@]43[C@@H]65)C2)C(=O)N(CC(C)C)C1=O | 7.72 | 0.45 | 5.5 | 20 | 36 | 2.5 | Toxic | Active |  |  |  |  |  |  |  | 
CCC1=C[C@H]2CN(/C=C(/C(=O)OC)Cc3c([nH]c4ccc(Br)cc34)[C@@](C(=O)OC)(c3cc4c(cc3OC)N(C)[C@H]3[C@@](O)(C(=O)OC)[C@H](OC(C)=O)[C@]5(CC)C=CCN6CC[C@]43[C@@H]65)C2)C1 | 0.47 | 0.5 | 6 | 1.2 | 2.1 | 3 |  |  |  |  |  |  |  |  |  | 
CCC1=C[C@H]2CN(/C=C(/C(=O)OCc3ccccc3)Cc3c([nH]c4ccccc34)[C@@](C(=O)OC)(c3cc4c(cc3OC)N(C)[C@H]3[C@@](O)(C(=O)OC)[C@H](OC(C)=O)[C@]5(CC)C=CCN6CC[C@]43[C@@H]65)C2)C1 | 0.48 | 0.1 | >100 | 1.3 | 2.3 | > 10 |  |  |  |  |  |  |  |  |  | 
CCOC(=O)/C1=C/N2CC(CC)=C[C@@H](C2)C[C@](C(=O)OC)(c2cc3c(cc2OC)N(C)[C@H]2[C@@](O)(C(=O)OC)[C@H](OC(C)=O)[C@]4(CC)C=CCN5CC[C@]32[C@@H]54)c2[nH]c3ccccc3c2C1 | 0.64 | 0.1 | >100 | 4 | 7.2 | > 10 |  |  |  |  |  |  |  |  |  | 
CCC1=C[C@H]2CN(C1)/C(C(=O)NCc1ccccc1)=C(/C(=O)OC)Cc1c([nH]c3ccccc13)[C@@](C(=O)OC)(c1cc3c(cc1OC)N(C)[C@H]1[C@@](O)(C(=O)OC)[C@H](OC(C)=O)[C@]4(CC)C=CCN5CC[C@]31[C@@H]54)C2 | 0.55 | 0.04 | 150 | 1.2 | 2.2 | 6 |  |  |  |  |  |  |  |  |  | 
CCOC(=O)[C@@H]1Cc2c([nH]c3ccccc23)[C@@](C(=O)OC)(c2cc3c(cc2OC)N(C)[C@H]2[C@@](O)(C(=O)OC)[C@H](OC(C)=O)[C@]4(CC)C=CCN5CC[C@]32[C@@H]54)C[C@H]2C=C(CC)CN(C2)C1 | 0.77 | 0.08 | 37 | 2.9 | 5.3 | 3 |  |  |  |  |  |  |  |  |  | 
CCC1=C[C@H]2CN(C1)C1=C(Cc3c([nH]c4ccccc34)[C@@](C(=O)OC)(c3cc4c(cc3OC)N(C)[C@H]3[C@@](O)(C(=O)OC)[C@H](OC(C)=O)[C@]5(CC)C=CCN6CC[C@]43[C@@H]65)C2)C(=O)N(Cc2ccccc2)C1=O | 1.89 | 0.9 | 5.5 | 6.3 | 11.3 | 5 | Toxic | Active | Active | 20 | 20 | Active | 90 | Active | 20 | 40

— ChEMBL document CHEMBL3860099, “Original Vinca Derivatives: From P-Glycoprotein Substrates to P-Glycoprotein Inhibitors” (J Med Chem, 2016)
